Measurements as given in ChEMBL document CHEMBL3407421, “Design, synthesis, X-ray crystallographic analysis, and biological evaluation of thiazole derivatives as potent and selective inhibitors of human dihydroorotate dehydrogenase” (J Med Chem, 2015).

Experiments:
[1] = target: T1, Dihydroorotate dehydrogenase (Plasmodium falciparum, UniProt Q54A96); experiment: Inhibition of Plasmodium falciparum DHODH using dihydroorotate substrate by DCIP assay
T1 sequence (Q54A96 whole entry): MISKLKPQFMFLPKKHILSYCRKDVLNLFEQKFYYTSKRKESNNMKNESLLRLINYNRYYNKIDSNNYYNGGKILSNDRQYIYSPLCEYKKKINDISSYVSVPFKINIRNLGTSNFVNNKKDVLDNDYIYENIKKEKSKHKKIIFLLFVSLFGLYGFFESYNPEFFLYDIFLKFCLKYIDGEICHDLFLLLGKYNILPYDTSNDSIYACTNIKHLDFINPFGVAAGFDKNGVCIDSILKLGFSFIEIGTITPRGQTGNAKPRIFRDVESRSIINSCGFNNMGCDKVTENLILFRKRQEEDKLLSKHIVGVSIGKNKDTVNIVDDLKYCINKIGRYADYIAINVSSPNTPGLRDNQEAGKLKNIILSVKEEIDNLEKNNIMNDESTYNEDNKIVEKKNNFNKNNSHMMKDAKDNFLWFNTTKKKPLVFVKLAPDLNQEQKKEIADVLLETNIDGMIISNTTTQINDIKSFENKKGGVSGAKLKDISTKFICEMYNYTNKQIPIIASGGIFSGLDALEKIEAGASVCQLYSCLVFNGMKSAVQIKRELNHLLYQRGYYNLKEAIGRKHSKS

[2] = Retention time of the compound; format: physicochemical
[3] = target: Dihydroorotate dehydrogenase (quinone), mitochondrial (Homo sapiens, UniProt Q02127)
Dihydroorotate dehydrogenase (quinone), mitochondrial, sequence (Q02127 whole entry): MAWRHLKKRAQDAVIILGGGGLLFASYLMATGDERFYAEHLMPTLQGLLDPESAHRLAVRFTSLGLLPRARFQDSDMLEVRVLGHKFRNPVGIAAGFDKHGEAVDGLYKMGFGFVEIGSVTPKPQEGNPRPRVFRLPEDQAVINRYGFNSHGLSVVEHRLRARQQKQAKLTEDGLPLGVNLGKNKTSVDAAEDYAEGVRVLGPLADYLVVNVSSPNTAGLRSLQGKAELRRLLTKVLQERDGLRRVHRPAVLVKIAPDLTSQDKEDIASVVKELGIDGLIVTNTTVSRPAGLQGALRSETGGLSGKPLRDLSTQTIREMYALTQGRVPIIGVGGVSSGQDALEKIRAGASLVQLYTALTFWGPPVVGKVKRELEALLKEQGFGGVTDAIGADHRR
Description: Inhibition of human DHODH using dihydroorotate substrate by DCIP assay

Rattus norvegicus = experiment: Toxicity in ip dosed bovine type-2 collagen-induced Wistar rat arthritic model assessed as change in body weight administered as qd for 28 days starting day after immunization; format: organism-based; settings: in vivo, 672 h

Row | Structure (SMILES) | IC50 [1] [µM] | Retention_time [2] [min] | IC50 [3] [µM] | Activity (Rattus norvegicus)
1 | CCOC(=O)c1sc(Nc2ccc(C)c(C)c2)nc1NC(=O)c1ccccc1 | > 10 | 7.51 |  | 
2 | CCOC(=O)c1sc(Nc2ccc(Cl)c(C(F)(F)F)c2)nc1NC(=O)c1ccccc1 | > 10 | 8.06 | > 10 | 
3 | CCOC(=O)c1sc(Nc2ccc(C)c(C)c2)nc1C1CC1 | > 10 | 10.18 |  | 
4 | CCOC(=O)c1sc(Nc2ccc(C)c(F)c2)nc1C1CC1 | > 10 | 9.96 |  | 
5 | CCOC(=O)c1sc(Nc2ccc(C)c(Cl)c2)nc1C1CC1 | > 10 | 11.22 |  | 
6 | CCOC(=O)c1sc(Nc2ccc(C)c(C)c2)nc1C(C)(C)C | > 10 | 12.16 |  | 
7 | CCOC(=O)c1sc(Nc2ccc(C)c(F)c2)nc1C(C)(C)C | > 10 | 11.92 |  | 
8 | CCOC(=O)c1sc(Nc2ccc(C)c(Cl)c2)nc1C(C)(C)C | > 10 | 13.12 |  | 
9 | CCOC(=O)c1sc(Nc2ccc(C)c(C)c2)nc1-c1ccccc1 | > 10 | 9.84 |  | 
10 | CCOC(=O)c1sc(Nc2ccc(C)c(F)c2)nc1-c1ccccc1 | > 10 | 9.56 |  | 
11 | CCOC(=O)c1sc(Nc2ccc(C)c(Cl)c2)nc1-c1ccccc1 | > 10 | 10.7 |  | 
12 | CCOC(=O)c1sc(Nc2ccccc2)nc1-c1ccccc1 | > 10 | 7.96 |  | 
13 | CCOC(=O)c1sc(Nc2ccc(OC)cc2)nc1-c1ccccc1 | > 10 | 7.54 |  | 
14 | CCOC(=O)c1sc(Nc2ccc(Cl)cc2)nc1-c1ccccc1 | > 10 | 9.69 |  | 
15 | CCOC(=O)c1sc(Nc2ccc(C(F)(F)F)cc2)nc1-c1ccccc1 | > 10 | 9.86 |  | 
16 | CCOC(=O)c1sc(Nc2ccc(C(C)(C)C)cc2)nc1-c1ccccc1 | > 10 | 21.11 |  | 
17 | CCOC(=O)c1sc(Nc2ccc(Cl)c(C(F)(F)F)c2)nc1-c1ccccc1 | > 10 | 11.06 |  | 
18 | CCOC(=O)c1sc(Nc2ccc(Br)c(C(F)(F)F)c2)nc1-c1ccccc1 | > 10 | 11.33 |  | 

Row | Structure (SMILES) | IC50 [1] [µM] | Retention_time [2] [min] | IC50 [3] [µM] | Activity (Rattus norvegicus)
19 | CCOC(=O)c1sc(Nc2ccc(Cl)c(Cl)c2)nc1-c1ccccc1 | > 10 | 11.11 |  | 
20 | CCOC(=O)c1sc(Nc2cc(Cl)cc(Cl)c2)nc1-c1ccccc1 | > 10 | 11.83 |  | 
21 | CCOC(=O)c1sc(Nc2ccc(Br)cc2C)nc1-c1ccccc1 | > 10 | 10.27 | > 10 | 
22 | CCOC(=O)c1sc(Nc2ccc3c(c2)CCC3)nc1-c1ccccc1 | > 10 | 10.42 |  | Non-toxic
23 | CCOC(=O)c1sc(Nc2ccc3c(c2)OCO3)nc1-c1ccccc1 | > 10 | 7.28 |  | 
24 | CCOC(=O)c1sc(Nc2ccc3c(c2)CCCC3)nc1-c1ccccc1 | > 10 | 11.36 |  | 
25 | CCOC(=O)c1sc(Nc2ccc3ccccc3c2)nc1-c1ccccc1 | > 10 |  |  | 
26 | CCOC(=O)c1sc(Nc2ccc3cc4ccccc4cc3c2)nc1-c1ccccc1 | > 10 | 12.09 |  | 
27 | CCOC(=O)c1sc(Nc2ccc(-c3ccccc3)cc2)nc1-c1ccccc1 | > 10 | 10.81 | > 10 | 
28 | CCOC(=O)c1sc(Nc2ccc(-c3cccc(OC)c3)cc2)nc1-c1ccccc1 | > 10 | 10.45 | > 10 | 
29 | CCOC(=O)c1sc(Nc2ccc(-c3ccccc3)cc2F)nc1-c1ccccc1 | > 10 | 11.33 | > 10 | 
30 | CCOC(=O)c1sc(Nc2ccc(-c3cccc(OC)c3)cc2F)nc1-c1ccccc1 | > 10 | 10.96 | > 10 | 
31 | CCOC(=O)c1sc(Nc2c(F)cc(-c3cccc(OC)c3)cc2F)nc1-c1ccccc1 | > 10 | 9.51 |  | 
32 | CCOC(=O)c1sc(Nc2ccc(Oc3ccccc3)c(Cl)c2)nc1-c1ccccc1 | > 10 | 11.24 | > 10 | 
33 | CCOC(=O)c1sc(Nc2ccc(OCc3ccccc3)c(Cl)c2)nc1-c1ccccc1 | > 10 | 10.92 | > 10 | 
34 | CCOC(=O)c1sc(Nc2ccc(OCc3c(F)cccc3Cl)c(Cl)c2)nc1-c1ccccc1 | > 10 | 9.95 | > 10 | 
35 | CN(Cc1cnc2nc(N)nc(N)c2n1)c1ccc(C(=O)N[C@@H](CCC(=O)O)C(=O)O)cc1 [METHOTREXATE] |  |  |  | Non-toxic

Continued, in another order:

Row | IC50 [1] [µM] | Retention_time [2] [min] | IC50 [3] [µM] | Structure (SMILES) | Activity (Rattus norvegicus)
36 | > 10 | 9.94 | > 10 | CC(=O)c1sc(Nc2ccccc2)nc1C | 
37 | 2.45 | 17.56 |  | CCOC(=O)c1sc(Nc2ccc(Br)cc2)nc1C | 
38 | 0.63 | 14.38 | 3.94 | CC(=O)c1sc(Nc2ccc(C)c(Cl)c2)nc1C | 
39 | > 10 | 13.52 | > 10 | CC(=O)c1sc(Nc2ccc(Br)cc2)nc1C | 
40 | > 10 | 14.61 | 3.65 | CC(=O)c1sc(Nc2ccc(C(C)(C)C)cc2)nc1C | 
41 | 1.49 | 12.41 | 3.85 | CC(=O)c1sc(Nc2ccc(C)c(C)c2)nc1C | 
42 | > 10 | 5.82 | > 10 | CC(=O)c1sc(Nc2ccc(C)c(F)c2)nc1C | 
43 | 4.27 | 16.17 | 2.35 | CC(=O)c1sc(Nc2ccc(Cl)c(C(F)(F)F)c2)nc1C | 
44 | > 10 | 16.48 | 1.93 | CC(=O)c1sc(Nc2ccc(Br)c(C(F)(F)F)c2)nc1C | 
45 | 0.871 | 13.39 | 0.562 | CC(=O)c1sc(Nc2ccc3ccccc3c2)nc1C | 
46 | > 10 | 16.95 | > 10 | CC(=O)c1sc(Nc2ccc3cc4ccccc4cc3c2)nc1C | 
47 | > 10 | 16.56 |  | CCOC(=O)c1sc(Nc2ccc(C)c(C)c2)nc1C | 
48 | > 10 | 8.14 |  | CCOC(=O)c1sc(Nc2ccc(C)c(F)c2)nc1C | 
49 | > 10 | 18.44 |  | CCOC(=O)c1sc(Nc2ccc(C)c(Cl)c2)nc1C | 
50 | > 10 | 9.01 |  | CCOC(=O)c1sc(Nc2ccc3ccccc3c2)nc1C | 
51 | > 10 | 9.57 |  | CCOC(=O)c1sc(Nc2ccc(C)c(C)c2)nc1N | 
52 | > 10 | 7.1 | > 10 | CCOC(=O)c1sc(Nc2ccc(Cl)c(C(F)(F)F)c2)nc1N | 
53 | > 10 | 7.61 | > 10 | CCOC(=O)c1sc(Nc2ccc(C)c(C)c2)nc1NC(=O)C1CC1 | 
54 | > 10 | 7.75 |  | CCOC(=O)c1sc(Nc2ccc(Cl)c(C(F)(F)F)c2)nc1NC(=O)C1CC1 | 
